Results: patent publication US12564190B2, “Biobased herbicide enhancer agent and method for using the same” (priority 2021, dated 2026)

Columns and labels:
Type in all cases: in vivo
Lemna minor = assay: Herbicide activity on Lemna minor in vitro, fresh weight reduction after one week; settings: fresh weight reduction compared to untreated plants, 7-day exposure, all chemicals 10 mg/L
Method: The experiment was carried out in Lemna minor growing in vitro conditions. Lemna minor (duckweed) was bought in the local market. A stock culture was maintained on modified Hoagland medium in a controlled environment. The pH of the medium was adjusted to 6.0, and the plants were grown under static conditions in a plant growth chamber at 25±2° C., light/dark regime of 16 h/8 h.
For the experiments, fronds free from any visible chlorosis were taken from the stock cultures and exposed to the appropriate treatment. For each treatment, we used six repetitions with three fronds per repetition as the initial frond number. Individual fronds were transferred to a 12 well multiplate containing Hoagland medium (control), Hoagland medium containing polyferulates, herbicides or the combination as shown in Table 9. All chemicals were evaluated at the same concentration (10 mg/L). The multiplate was covered with a transparent cover to prevent evaporation. The herbicide activity was evaluated as fresh weight reduction compared to untreated plants after one week of incubation in the described conditions.

potato plants = assay: Desiccation of potato plants, field plots, visual evaluation 15 days after treatment; settings: three herbicides tested
Excerpt: The desiccant was applied by spraying.

Echinochloa colona = assay: Herbicide activity on Echinochloa colona plants, visual evaluation 20 days after treatment; settings: E. colona, 20 DAT, application rate 110 g a.i. ha^−1
Excerpt: Echinochloa colona is a cosmopolitan weed common in crops (mainly rice, maize and vegetables), gardens, roadsides, disturbed sites, waste areas and pastures. It also grows along waterways, on the margins of lakes and ponds, in swamps and wetlands, and in other damp habitats. It has the potential to invade natural areas and completely outcompete native vegetation. This weed pose a significant threat to rice productivity globally and are usually reported as noxious weeds in several economically important crops around the world. E. colona has vigorous growth traits and high seed production since each E. colona plant can produce up to 42,000 seeds. The experiment in Echinochloa colona plants was carried out in independent pots and in four replications. […] The products were applied by spraying. The herbicide activity was visually evaluated 20 days after treatment.

Compound | Herbicide activity (Lemna minor) [%] | Effect in combination with the herbicides tested (synergism or antagonism according to Colby) (potato plants) | Herbicide activity (Echinochloa colona)
CCOC1Oc2ccc(OS(C)(=O)=O)cc2C1(C)C (stereo not shown) [Ethofumesate] | 0 | – | –
COc1cc(/C=C/C(=O)O)ccc1O [Ferulic acid, (2E)-3-(4-hydroxy-3methoxyphenyl) prop-2-enoic acid] | – | antagonist | –
COC(=O)Nc1cccc(OC(=O)Nc2cccc(C)c2)c1 [Phenmedipham] | 3 | – | –
CCCC(=NOCC(C)Oc1ccc(Cl)cc1)C1=C(O)CC(C2CCCSC2)CC1=O (stereo not shown) [Profoxydim] | 45 | – | 34
COC(=O)c1cccc(C)c1S(=O)(=O)NC(=O)Nc1nc(OCC(F)(F)F)nc(N(C)C)n1 [Triflusulfuron-methyl] | 34 | – | –
Diferulic acid | – | antagonist | –
